pIC50, pKd: −log10 of the molar value.
Columns and labels:
GDP KRAS G12D = GDP KRAS G12D (Homo sapiens, UniProt P01116, G12D); experiment: SPR binding affinity to GDP KRAS G12D (Biacore S200); conditions: GDP-loaded KRAS G12D, steady state KD
Protocol: (§1) The affinity of compounds of the present disclosure to RAS ligands was assessed using surface plasmon resonance (SPR) binding analysis using a Biacore S200 (GE Healthcare Life Sciences) instrument. The SPR binding analysis employed the following reagents and protocols:
(§2) Buffer preparation: To make 0.5 L add required amounts of stocks for: 20 mM Hepes, 150 mM NaCl, 5 mM MgCl2, 1 mM TCEP, 0.05% P20, and 5 μM nucleotide. Adjust pH to 7.4, then bring volume up to 475 mL 1.05×Filter through 0.2 μm cellulose acetate membrane. Remove a volume of buffer as No DMSO Buffer 1.05× and set aside. Add appropriate volume of DMSO to buffer to a final concentration 5% DMSO.
(§3) Chip preparation: Prime 2× with 5% DMSO buffer. Allow system to flow on standby throughout the day.
(§4) Sample preparation: Make a 20× compound solution in 100% DMSO of highest compound concentration to be screened (2 mM for final 100 μM compound). Add appropriate volume of 1.05× buffer without DMSO to give 5% DMSO and mix by pipetting. Centrifuge sample 18,000×g 5 min 25° C. Make appropriate serial dilutions from the highest concentration into 5% DMSO running buffer for the concentrations needed. Prepare 5.8% DMSO and 4.5% DMSO solvent correction solutions using buffer without DMSO. Make two more solvent corrections by mixing 200 μL 4.5% 500 μL 5.8%, and 400 μL 4.5% 300 μL 5.8%
(§5) Capture Avi-taggedprotein: Thaw protein stock on ice, aliquot into single use size and freeze at −80° C. for future use. Dilute protein (avi-KRAS WT, avi-KRAS-G12D, avi-KRAS-G12V, or avi-RhoA) appropriately, to 20 μg/mL to begin in 5% DMSO buffer. Manually inject at 10 μL/min 12 second contact time. Adjust flow and or contact time to achieve desired level of captured protein. When desired level of protein is captured, flow for 10 minutes to stabilize signal.
(§6) General Binding Level Screen Method: Choose LMW screen template in Fragment/LMW subfolder in Binding screen folder. 30 μL/min high performance injection, 60 sec contact and dissociation time, carry over control, extra wash with 50% DMSO for each injection. Fifteen Startup cycles to condition. Control samples before and after compound samples. For GppNHp loaded KRAS, control is 20 μM Raf1 RBD domain. Adjust this sample to final 5% DMSO to match running buffer. This process is performed at a temperature of 25° C. using a single chip per experiment.
(§7) Binding affinity determination: Compounds selected from the binding level screen are evaluated in a dose response to determine the binding affinity (KD). Serial dilutions of compounds are prepared and injected over the sensor chip using a flow rate of 30 μL/min with a 60 second contact and dissociation time. After double referencing of the sensorgrams the total level of compound binding at each concentration is calculated. The steady state binding affinity is calculated with a Langmuir binding model assuming a 1:1 interaction with a constrained Rmax using the BIAevaluation software.

GppNHp KRAS G12D = GppNHp KRAS G12D (Homo sapiens, UniProt P01116, G12D); experiment: SPR binding affinity to GppNHp KRAS G12D (Biacore S200); conditions: GppNHp-loaded KRAS G12D, steady state KD
Protocol: as §1, §2, §3, §4, §5, §6, §7

[1] = target: T1, Avi-KRAS G12D (1-169) GppNHp/RAF1 RBD-3xFLAG (52-151) (Homo sapiens, UniProt P01116, G12D); experiment: RAS-effector PPI HTRF disruption assay, Raf1-GppNHp-KRAS G12D; format: biochemical
T1 construct: 100 nM Avi-KRAS G12D (1-169) GppNHp
How it was run: (§8)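 Each effector pair was tested at its own level (PI3KCA–G12D/Q25A at 375 nM, RAF1 RBD with G12D at 100 nM, and RAF1 RBD with G12V or WT at 50 nM) against compound dilutions from 100 μM down to 0.02 μM. Time-resolved fluorescence after two 1 h room-temperature steps gave IC50 values normalised to DMSO.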

[2] = target: T2, Avi-KRAS G12D/Q25A (1-169) GppNHp/3xFLAG-PI3KCA (157-299) (Homo sapiens, UniProt P01116, G12D/Q25A); experiment: RAS-effector PPI HTRF disruption assay, PI3KCA-GppNHp-KRAS G12D/Q25A; format: biochemical
T2 construct: 375 nM Avi-KRAS G12D/Q25A (1-169) GppNHp
How it was run: as §8

[3] = target: T3, Avi-KRAS G12V (1-169) GppNHp/RAF1 RBD-3xFLAG (52-151) (Homo sapiens, UniProt P01116, G12V); experiment: RAS-effector PPI HTRF disruption assay, Raf1-GppNHp-KRAS G12V; format: biochemical
T3 construct: 50 nM Avi-KRAS G12V (1-169) GppNHp
How it was run: as §8

[4] = target: T4, Avi-KRAS WT (1-169) GppNHp/RAF1 RBD-3xFLAG (52-151) (Homo sapiens, UniProt P01116); experiment: RAS-effector PPI HTRF disruption assay, Raf1-GppNHp-KRAS WT; format: biochemical
T4 construct: 50 nM Avi-KRAS WT (1-169) GppNHp
How it was run: as §8

[5] = system: pERK in GP2d cells (KRAS G12D); experiment: Cell-based pERK HTRF assay in GP2d cell; conditions: GP2d, 1 h, 60 min incubation
How it was run: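 Phospho-ERK was measured by HTRF in lysates of KRAS G12D GP2d cells after 60 min of compound exposure. Nine concentrations were tested, half-log apart from a 1 μM top, with 0.25% DMSO throughout. Cells had been plated the previous day in DMEM with 10% FBS, and the detection antibodies were incubated 4–24 h at room temperature before reading.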

T2 sequence (P01116 1-169 isoform P01116-2 G12D/Q25A): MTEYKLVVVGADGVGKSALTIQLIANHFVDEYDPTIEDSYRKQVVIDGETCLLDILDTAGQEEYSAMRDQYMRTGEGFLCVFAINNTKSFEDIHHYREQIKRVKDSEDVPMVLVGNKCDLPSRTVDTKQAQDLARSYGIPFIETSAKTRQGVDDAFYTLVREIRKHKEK
Chain of GppNHp KRAS G12D (P01116 1-188 isoform P01116-2 G12D): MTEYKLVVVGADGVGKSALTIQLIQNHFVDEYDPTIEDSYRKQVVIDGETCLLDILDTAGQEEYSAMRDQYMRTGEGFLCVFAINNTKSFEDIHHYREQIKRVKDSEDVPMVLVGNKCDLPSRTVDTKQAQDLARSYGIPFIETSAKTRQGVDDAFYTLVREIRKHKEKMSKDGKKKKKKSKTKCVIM
Chain of GDP KRAS G12D (P01116 1-188 isoform P01116-2 G12D): as above
T1 sequence (P01116 1-169 isoform P01116-2 G12D): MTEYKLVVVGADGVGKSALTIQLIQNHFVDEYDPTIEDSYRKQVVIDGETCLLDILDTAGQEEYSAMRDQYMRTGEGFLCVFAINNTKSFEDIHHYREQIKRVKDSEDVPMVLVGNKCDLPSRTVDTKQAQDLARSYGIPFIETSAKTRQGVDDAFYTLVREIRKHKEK
T4 sequence (P01116 1-169 isoform P01116-2): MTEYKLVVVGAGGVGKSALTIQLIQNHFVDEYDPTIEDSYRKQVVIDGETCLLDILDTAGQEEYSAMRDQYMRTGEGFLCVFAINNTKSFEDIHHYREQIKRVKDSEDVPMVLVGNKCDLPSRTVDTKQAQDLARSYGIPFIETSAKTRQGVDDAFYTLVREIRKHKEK
T3 sequence (P01116 1-169 isoform P01116-2 G12V): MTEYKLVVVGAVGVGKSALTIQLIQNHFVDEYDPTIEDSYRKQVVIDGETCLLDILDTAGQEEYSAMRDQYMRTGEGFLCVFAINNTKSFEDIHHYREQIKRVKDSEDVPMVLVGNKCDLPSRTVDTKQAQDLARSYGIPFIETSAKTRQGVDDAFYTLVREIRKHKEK

pKd (GDP KRAS G12D)	pKd (GppNHp KRAS G12D)	pIC50 [1]	pIC50 [2]	pIC50 [3]	pIC50 [4]	pIC50 [5]	Structure (SMILES)
≥ 7.00	6.00 to 7.00	6.00 to 7.00	5.00 to 6.00	5.00 to 6.00	5.00 to 6.00	≥ 7.00	C[C@@H]1C[C@@H](Oc2nc(OC[C@@]34CCCN3C[C@H](F)C4)nc3c(F)c(-c4ccc(F)c5sc(N)nc45)c(C(F)(F)F)cc23)CN1 (atropisomer, axis not shown) [Compound 20]
≥ 7.00	6.00 to 7.00	6.00 to 7.00	6.00 to 7.00	5.00 to 6.00	6.00 to 7.00	≥ 7.00	C[C@H]1NCCC1Oc1nc(OC[C@@]23CCCN2C[C@H](F)C3)nc2c(F)c(-c3ccc(F)c4sc(N)nc34)c(C(F)(F)F)cc12 (stereo partly drawn) [Compound 19]

Structure (SMILES)	pKd (GDP KRAS G12D)	pKd (GppNHp KRAS G12D)	pIC50 [1]	pIC50 [2]	pIC50 [3]	pIC50 [4]	pIC50 [5]
Nc1nc2c(-c3c(C(F)(F)F)cc4c(OC5CC6CC[C@H](C5)N6)nc(OCC56CCCN5CCC6)nc4c3F)ccc(F)c2s1 (stereo partly drawn) [Compound 26]	≥ 7.00	≥ 7.00	≥ 7.00	6.00 to 7.00	5.00 to 6.00	≥ 7.00	< 6.00
